From patent US20160031863A1, “HISTONE DEACETYLASE INHIBITORS AND COMPOSITIONS AND METHODS OF USE THEREOF” (CHDI FOUNDATION, INC., priority 2013, published 2016)

Tests used:
[1] = biological target: T1, Histone Deacetylase 4 (HDAC4) catalytic domain (Homo sapiens, UniProt P56524); test: Inhibition of HDAC4 catalytic domain enzymatic activity, fluorogenic substrate Boc-Lys(Tfa)-AMC; assay type: biochemical
T1 construct: 6x histidine tag (C); purchased BioFocus
Description: The potency of compounds is quantified by measuring the Histone Deacetylase 4 (HDAC4) catalytic domain enzymatic activity using the fluorogenic substrate, Boc-Lys(Tfa)-AMC. The substrate is deacetylated to Boc-Lys-AMC by HDAC4. Cleavage by trypsin results in the release of the fluorophore AMC from the deacetylated substrate. The fluorescence of the sample is directly related to the histone deacetylase activity in the sample.
(§1) Serial dilutions of the compounds being tested and control reference compound (1-(5-(3-((4-(1,3,4-oxadiazol-2-yl)phenoxy)methyl)-1,2,4-oxadiazol-5-yl)thiophen-2-yl)-2,2,2-trifluoroethanone) are made by first resuspending the lyophilized compound to a final concentration of 10 mM in 100% dimethyl sulfoxide (DMSO). Stocks of 60 μL aliquots of the 10 mM compound in DMSO are prepared and stored at −20° C. From one stock aliquot of each compound to be tested and the reference compound, a 16-point serial dilution is prepared according to Table 1 using a 125 μL 16-channel Matrix multi-channel pipette (Matrix Technologies Ltd).
2 μL (200×) of each diluted solution and each control (full activity: 100% DMSO alone or full inhibition 1 mM) is stamped into V-bottomed polypropylene 384-well compound plates using either the Bravo (384-well head from Agilent) or 12.5 μL 16-channel Matrix multi-channel pipette (Matrix Technologies Ltd).
A working solution of enzyme is prepared from a 500 μg/mL stock aliquot of HDAC4 catalytic domain (thawed on ice) diluted to 0.2 μg/mL with assay buffer (50 mM Tris-HCl, 137 mM NaCl, 2.7 mM KCl, and 1 mM MgCl2 at pH 8 and equilibrated to room temperature) just prior to the addition of the enzyme to the assay.
5× (50 μM) substrate is prepared just prior to the addition to the assay. A 1 mM substrate stock is made by diluting a 100 mM Boc-Lys(Tfa)-AMC in DMSO solution 1:100 by adding it drop-wise to assay buffer (equilibrated to room temperature) while vortexing at slow speed to prevent precipitation. The 5× substrate is prepared by diluting the 1 mM substrate solution 1:20 by adding it drop-wise to assay buffer (equilibrated to room temperature) while vortexing at slow speed to prevent precipitation.
3× (30 μM) Developer/Stop Solution is prepared just prior to addition to the plate by diluting a stock solution of 10 mM reference compound 1:333 in 25 mg/mL trypsin (PAA Laboratories Ltd.) equilibrated to room temperature.
5 μL of each solution of 1:20 diluted compound from above is transferred to a clear bottomed, black, 384-well assay plate using the Bravo or the Janus (384-well MDT head from Perkin Elmer). Using a 16-channel Matrix multi-channel pipette, 35 μL of the working solution of HDAC4 catalytic domain enzyme (0.2 μg/mL in assay buffer) is transferred to the assay plate. The assay is then started by adding 10 μL of 5× (50 μM) substrate to the assay plates using either the Bravo, Janus or 16-channel Matrix multi-channel pipette. The assay plate is then shaken for two minutes on an orbital shaker at 900 rpm (rotations per minute). Next the plate is incubated for 15 minutes at 37° C. The reaction is stopped by adding 25 μL of 3× (30 μM) developer/stop solution to the assay plates using either the Bravo, Janus or a 16-channel Matrix multi-channel pipette. Assay plates are then shaken for 5 minutes on an orbital shaker at 1200 rpm. Next, the assay plates are incubated at 37° C. for 1 hour in a tissue culture incubator. Finally, the fluorescence is measured (Excitation: 355 nm, Emission: 460 nm) using PerkinElmer EnVision in top read mode.

[2] = test system: cellular histone deacetylase enzymatic activity in Jurkat E6-1 cells; test: Inhibition of cellular HDAC activity in Jurkat E6-1 cells, fluorogenic substrate Boc-Lys(Tfa)-AMC; assay type: cell-based; conditions: Homo sapiens
Procedure: The potency of the compounds is quantified by measuring the cellular histone deacetylase enzymatic activity using the fluorogenic substrate, Boc-Lys(Tfa)-AMC. After penetration in Jurkat E6-1 cells, the substrate is deacetylated to Boc-Lys-AMC. After cell lysis and cleavage by trypsin, the fluorophore AMC is released from the deacetylated substrate only. The fluorescence of the sample is directly related to the histone deacetylase activity in the sample.
Jurkat E6.1 cells are cultured according to standard cell culture protocols in Jurkat E6.1 Growth Media (RPMI without phenol red, 10% FBS, 10 mM HEPES, and 1 mM Sodium Pyruvate). Jurkat E6.1 cells are counted using a Coulter Counter and resuspended in Jurkat E6.1 growth media at a concentration of 75,000 cells/35 μL. 35 μL or 75,000 cells is seeded into Greiner microtitre assay plates. The plates are then incubated at 37° C. and 5% CO2 while other assay components are being prepared.
as §1, with “DMSO.” for “dimethyl sulfoxide (DMSO).”, “70” for “60”, “pipette.” for “pipette (Matrix Technologies Ltd).”
2 μL (200×) of each diluted solution and each control (full activity: 100% DMSO alone or full inhibition 1 mM) is stamped into V-bottom polypropylene 384-well compound plates using either the Bravo, Janus, or 12.5 μL 16-channel Matrix multi-channel pipette. Each well with the 200× compound solution is diluted 1:20 by the addition of 38 μL Jurkat assay buffer+DMSO (9.5% DMSO, RPMI without phenol red, 0.09% FBS, 9 mM Hepes, and 0.9 mM Sodium Pyruvate equilibrated to room temperature)
5× (500 μM) substrate is prepared just prior to the addition to the assay. The 5× substrate is prepared by diluting a 100 mM Boc-Lys(Tfa)-AMC in DMSO solution 1:200 by adding it drop-wise to Jurkat assay medium (RPMI without phenol red, 0.1% FBS, 10 mM Hepes, and 1 mM Sodium Pyruvate equilibrated to 37° C.) while vortexing at slow speed to prevent precipitation.
10 mL of 3× lysis buffer is prepared with 8.8 ml of 3× stock lysis buffer (50 mM Tris-HCl, pH 8.0, 137 mM NaCl, 2.7 mM KCl, 1 mM MgCl2, 1% Nonidet P40 Substitute equilibrated to room temperature) and 1.2 mL of 3 mg/mL Trypsin equilibrated to room temperature.
5 μL of each solution of 1:20 diluted compound from above is transferred to the Greiner microtitre assay plates with 75,000 cells/well using the Bravo. Cells are then incubated for 2 hours at 37° C. and 5% CO2. The assay is then started by adding 10 μL of 5× (500 μM) substrate to the assay plate using either the Bravo or 16-channel Matrix multi-channel pipette. The cells are then incubated for 3 hours at 37° C. and 5% CO2. Next, 25 μL of 3× lysis buffer is added to each well using either the 125 μL 16 channel pipette or the Bravo. The assay plate is then incubated overnight (15-16 hours) at 37° C. and 5% CO2. The following day, the plates are shaken on an orbital shaker for 1 minute at 900 rpm. Finally the top read fluorescence (Excitation: 355 nm, Emission: 460 nm) is measured using PerkinElmer EnVision.

T1 sequence (P56524 648-1032): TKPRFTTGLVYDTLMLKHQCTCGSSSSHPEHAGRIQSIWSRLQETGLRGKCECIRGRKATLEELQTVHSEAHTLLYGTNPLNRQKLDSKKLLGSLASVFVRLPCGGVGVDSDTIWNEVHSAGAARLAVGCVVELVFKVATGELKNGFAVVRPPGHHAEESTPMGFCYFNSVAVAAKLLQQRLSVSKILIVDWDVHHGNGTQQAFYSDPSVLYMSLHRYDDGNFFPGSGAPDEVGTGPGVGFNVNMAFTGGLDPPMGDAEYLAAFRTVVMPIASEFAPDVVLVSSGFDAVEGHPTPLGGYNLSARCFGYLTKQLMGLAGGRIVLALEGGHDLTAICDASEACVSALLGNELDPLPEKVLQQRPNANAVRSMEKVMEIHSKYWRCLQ

| IC50 [1] [µM] | IC50 [2] [µM] | Compound |
| --- | --- | --- |
| 10.3 | 24.2 | O=C(NO)c1cc(-c2ccccc2)nn1-c1ccccc1 [Example 1, N-Hydroxy-1,3-diphenylpyrazole-5-carboxamide] |
| 0.12 | 2.72 | O=C(NO)c1cc(-c2cccc3ccsc23)nn1-c1ccccc1 [Example 2, N-Hydroxy-3-(benzothiophen-7-yl)-1-phenyl-1H-pyrazole-5-carboxamide] |
| 0.94 | 7.3 | Cc1ccccc1-c1cc(C(=O)NO)n(-c2ccccc2)n1 [Example 3, N-Hydroxy-3-(2-methylphenyl)-1-phenyl-1H-pyrazole-5-carboxamide] |
| 0.96 | 10.2 | O=C(NO)c1cc(Cc2ccccc2)nn1-c1ccccc1 [Example 4, N-Hydroxy-3-benzyl-1-phenyl-1H-pyrazole-5-carboxamide] |
| 0.38 | 2.82 | O=C(NO)c1cc(-c2ccccc2Cl)nn1-c1ccccc1 [Example 5, N-Hydroxy-3-(2-chlorophenyl)-1-phenyl-1H-pyrazole-5-carboxamide] |
| 2.7 | 20.3 | O=C(NO)c1cc(C2=CCCC2)nn1-c1ccccc1 [Example 6, N-Hydroxy-3-(cyclopenten-1-yl)-1-phenyl-1H-pyrazole-5-carboxamide] |
| 1.8 | 12.1 | O=C(NO)c1cc(C2CCCC2)nn1-c1ccccc1 [Example 7, N-Hydroxy-3-cyclopentyl-1-phenyl-1H-pyrazole-5-carboxamide] |
| 4.9 | 41.6 | O=C(NO)c1cc(-c2cncc(Cl)c2)nn1-c1ccccc1 [Example 8] |
| 1.4 | 6.9 | Cc1ncccc1-c1cc(C(=O)NO)n(-c2ccccc2)n1 [Example 9, N-Hydroxy-3-(2-methyl-3-pyridyl)-1-phenyl-1H-pyrazole-5-carboxamide] |
| 0.75 | 5.68 | Cc1ccccc1-c1cc(C(=O)NO)n(-c2cccc(F)c2C)n1 [Example 10, N-hydroxy-1-(3-fluoro-2-methyl-phenyl)-3-(2-methyl-phenyl)-1H-pyrazole-5-carboxamide] |
| 2.4 | 16 | Cc1ccccc1-c1cc(C(=O)NO)n(-c2ccccc2C)n1 [Example 12, N-Hydroxy-1,3-bis(2-methylphenyl)-1H-pyrazole-5-carboxamide] |
| 27.5 | > 50 | O=C(NO)c1cc(OCc2ccccc2)nn1-c1ccccc1 [Example 13, N-Hydroxy-3-benzyloxy-1-phenyl-1H-pyrazole-5-carboxamide] |
| 9.9 | 46.2 | O=C(NO)c1cc(N2CCCC2)nn1-c1ccccc1 [Example 14, N-Hydroxy-1-phenyl-3-pyrrolidin-1-yl-1H-pyrazole-5-carboxamide] |
| 1.4 | 13.8 | Cc1ccccc1-c1cc(C(=O)NO)n(-c2ccccc2)c1 [Example 15, N-Hydroxy-4-(2-methylphenyl)-1-phenyl-pyrrole-2-carboxamide] |
| 0.71 | 6.17 | O=C(NO)c1cc(-c2ccccc2Cl)cn1-c1ccccc1 [Example 16, N-Hydroxy-4-(2-chlorophenyl)-1-phenyl-pyrrole-2-carboxamide] |

| Compound | IC50 [1] [µM] | IC50 [2] [µM] |
| --- | --- | --- |
| CN1CC=C(c2cc(C(=O)NO)n(-c3ccccc3)n2)CC1 [Example 11, N-Hydroxy-3-(1-methyl-3,6-dihydro-2H-pyridin-4-yl)-1-phenyl-1H-pyrazole-5-carboxamide] | 0.24 | 4.07 |
